# System: HCV 1b genotype
# Assay: HCV Replicon assay (HCV-neo replicon cells, wild-type)
# Type: cell-based
# Conditions: HCV 1b genotype replicon; class symbols
# Method in brief: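 Inhibition was measured in HCV-neo (genotype 1b) replicon cells. Some assay versions used luciferase reporters.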
row,Structure (SMILES),EC50 [nM]
1,"COC(=O)NC(C(=O)N1[C@@H]2C[C@@H]2C[C@H]1c1nc2cc(Oc3cccc(-c4ccc5[nH]c([C@@H]6C[C@H]7C[C@H]7N6C(=O)C(NC(=O)OC)c6ccccc6)nc5c4)c3)ccc2[nH]1)c1ccccc1 (stereo partly drawn) [Example V5, methyl (2-((1R,3S,5R)-3-(5-(3-((2-((1R,3S,5R)-2-(((methoxycarobnyl)amino)phenyl)acetyl)-2-azabicyclo[3.1.0]hex-3-yl)-1H-benzimidazol-5-yl)oxy)phenyl)-1H-benzimidazol-2-yl)-2-azabicyclo[3.1.0]hex-2-yl)-2-oxo-1-phenylethyl) carbamate]",< 4.57
2,C[C@@H](c1nc2cc(C#Cc3ccc4[nH]c([C@H](C)N(C)C(=O)[C@H](O)c5ccccc5)nc4c3)ccc2[nH]1)N(C)C(=O)[C@H](O)c1ccccc1 [Example M33],< 4.57
3,"COC(=O)N[C@@H](C)C(=O)N1[C@@H]2C[C@@H]2C[C@H]1c1nc2cc(-c3ccc(Oc4cccc5[nH]c([C@@H]6C[C@H]7C[C@H]7N6C(=O)[C@H](C)NC(=O)OC)nc45)cc3)ccc2[nH]1 [Example V8, methyl ((1S)-2-((1R,3S,5R)-3-(5-(4-((2-((1R,3S,5R)-2-(N-(methoxycarbonyl)-L-alanyl)-2-azabicyclo[3.1.0]hex-3-yl)-1H-benzimidazol-4-yl)oxy)phenyl)-1H-benzimidazol-2-yl)-2-azabicyclo[3.1.0]hex-2-yl)-1-methyl-2-oxoethyl) carbamate]",< 4.57
4,CCC(=O)N1CCC[C@H]1c1nc2cc(C#Cc3ccc4[nH]c([C@@H]5CCCN5C(=O)CC)nc4c3)ccc2[nH]1 [Example M2],4.57 to 99

# Same assay, conditions: HCV 1b genotype replicon; numeric values
row,Structure (SMILES),EC50 [nM]
1,C[C@@H](c1nc2cc(C#Cc3ccc4[nH]c([C@H](C)N(C)C(=O)[C@@](C)(O)c5ccccc5)nc4c3)ccc2[nH]1)N(C)C(=O)[C@@](C)(O)c1ccccc1 [Example M34],40
2,"COC(=O)N[C@@H](C(=O)N(C)[C@@H](C)c1nc2cc(C#Cc3ccc4[nH]c([C@H](C)N(C)C(=O)[C@H](NC(=O)OC)c5ccccc5)nc4c3)ccc2[nH]1)c1ccccc1 [Example M36, dimethyl (1,2-ethynediylbis(1H-benzimidazole-5,2-diyl(1S)-1,1-ethanediyl(methylimino)((1R)-2-oxo-1-phenyl-2,1-ethanediyl)))biscarbamate]",0.005

# Same assay, conditions: Hepatitis C virus, HCV 1b genotype replicon; class symbols
row,Structure (SMILES),EC50 [nM]
1,"O=C(C1CCC1)N1CCC[C@H]1c1nc2cc(C#Cc3ccc4nc([C@@H]5CCCN5C(=O)C5CCC5)[nH]c4c3)ccc2[nH]1 [Example M9, 2-((2S)-1-(cyclobutylcarbonyl)-2-pyrrolidinyl)-5-((2-((2S)-1-(cyclobutylcarbonyl)-2-pyrrolidinyl)-1H-benzimidazol-6-yl)ethynyl)-1H-benzimidazole]",4.57 to 99
2,"C[C@](O)(C(=O)N1CCC[C@H]1c1nc2ccc(-c3ccc(-c4ccc5nc([C@@H]6CCCN6C(=O)[C@](C)(O)c6ccccc6)[nH]c5c4)o3)cc2[nH]1)c1ccccc1 [JG1, (2R,2′R)-1,1′-(2,5-furandiylbis(1H-benzimidazole-5,2-diyl(2S)-2,1-pyrrolidinediyl))bis(1-oxo-2-phenyl-2-propanol)]",4.57 to 99
3,"CC(=O)N1CCC[C@H]1c1nc2ccc(C#Cc3ccc4[nH]c([C@@H]5CCCN5C(=O)c5ccccc5)nc4c3)cc2[nH]1 [Example M54.18, 5-((2-((2S)-1-acetyl-2-pyrrolidinyl)-1H-benzimidazol-6-yl)ethynyl)-2-((2S)-1-benzoyl-2-pyrrolidinyl)-1H-benzimidazole]",4.57 to 99
4,"COC(=O)N[C@H](C(=O)N1CCC[C@H]1c1nc2cc(C#Cc3ccc4[nH]c([C@@H]5CCCN5C(=O)[C@@H](NC(=O)OC)C(C)C)nc4c3)ccc2[nH]1)C(C)C [Example M24, methyl ((1S)-1-(((2S)-2-(5-((2-((2S)-1-((2S)-2-((methoxycarbonyl)amino)-3-methylbutanoyl)-2-pyrrolidinyl)-1H-benzimidazol-5-yl)ethynyl)-1H-benzimidazol-2-yl)-1-pyrrolidinyl)carbonyl)-2-methylpropyl)carbamate]",< 4.57
5,"O=C(C1CCC1)N1CCC[C@H]1c1nc2ccc(C#Cc3ccc4[nH]c([C@@H]5CCCN5C(=O)[C@H]5CCCO5)nc4c3)cc2[nH]1 [Example M54.10, 5-((2-((2S)-1-(cyclobutyl-carbonyl)-2-pyrrolidinyl)-1H-benzimidazol-6-yl)ethynyl)-2-((2S)-1-((2R)-tetrahydro-2-furanylcarbonyl)-2-pyrrolidinyl)-1H-benzimidazole]",4.57 to 99
6,"CC(C)(C)OC(=O)C[C@H](NC(=O)OCc1ccccc1)c1nc2cc(CCc3ccc4nc([C@H](CC(=O)OC(C)(C)C)NC(=O)OCc5ccccc5)[nH]c4c3)ccc2[nH]1 [OL9, tert-butyl (3S)-3-(((benzyloxy)carbonyl)amino)-3-(5-(2-(2-((1S)-1-(((benzyloxy)carbonyl)amino)-3-tert-butoxy-3-oxopropyl)-1H-benzimidazol-6-yl)ethyl)-1H-benzimidazol-2-yl)propanoate]",4.57 to 99
7,"COC(=O)N[C@H](C(=O)N1CCCC[C@H]1c1nc2ccc(-c3ccc(-c4ccc5nc([C@@H]6CCCCN6C(=O)[C@@H](NC(=O)OC)C(C)C)[nH]c5c4)cc3)cc2[nH]1)C(C)C [Example M46.3, Methyl((1S)-1-(((2S)-2-(5-(4-(2-((2S)-1-((2S)-2-((methoxycarbonyl)amino)-3-methylbutanoyl)-2-piperidinyl)-1H-benzimidazol-5-yl)phenyl)-1H-benzimidazol-2-yl)-1-piperidinyl)carbonyl)-2-methylpropyl)carbamate]",< 4.57
8,"O=C(Cc1ccccc1)N1CCC[C@H]1c1nc2cc(C#Cc3ccc4[nH]c([C@@H]5CCCN5C(=O)Cc5ccccc5)nc4c3)ccc2[nH]1 [Example M37, 5,5′-(1,2-ethynediyl)bis(2-((2S)-1-(phenylacetyl)-2-pyrrolidinyl)-1H-benzimidazole)]",< 4.57
9,"CC(C)(C)O[C@@H]1C[C@@H](c2nc3cc(CCc4ccc5nc([C@@H]6C[C@@H](OC(C)(C)C)CN6C(=O)OCc6ccccc6)[nH]c5c4)ccc3[nH]2)N(C(=O)OCc2ccccc2)C1 [OL5, benzyl (2S,4R)-2-(5-(2-(2-((2S,4R)-1-((benzyloxy)carbonyl)-4-tert-butoxy-2-pyrrolidinyl)-1H-benzimidazol-6-yl)ethyl)-1H-benzimidazol-2-yl)-4-tert-butoxy-1-pyrrolidinecarboxylate]",100 to 999
10,"CC(=O)N1CCC[C@H]1c1nc2ccc(C#Cc3ccc4[nH]c([C@@H]5CCCN5C(=O)[C@@H]5CCCN5C)nc4c3)cc2[nH]1 [Example M54.27, 5-((2-((2S)-1-acetyl-2-pyrrolidinyl)-1H-benzimidazol-6-yl)ethynyl)-2-((2S)-1-(1-methyl-L-prolyl)-2-pyrrolidinyl)-1H-benzimidazole]",1000 to 10000
11,"CN(C)[C@@H](C(=O)N1CCC[C@H]1c1nc2cc(C#Cc3ccc4[nH]c([C@@H]5CCCN5C(=O)[C@H]5CCCO5)nc4c3)ccc2[nH]1)c1ccccc1 [Example M53, (1R)-N,N-dimethyl-2-oxo-1-phenyl-2-((2S)-2-(5-((2-((2S)-1-((2R)-tetrahydro-2-furanylcarbonyl)-2-pyrrolidinyl)-1H-benzimidazol-5-yl)ethynyl)-1H-benzimidazol-2-yl)-1-pyrrolidinyl) ethanamine]",< 4.57
12,"CC(=O)N1CCC[C@H]1c1nc2ccc(C#Cc3ccc4[nH]c([C@@H]5CCCN5C(=O)C5CCC5)nc4c3)cc2[nH]1 [Example M54.31, 5-((2-((2S)-1-acetyl-2-pyrrolidinyl)-1H-benzimidazol-6-yl)ethynyl)-2-((2S)-1-(cyclobutyl-carbonyl)-2-pyrrolidinyl)-1H-benzimidazole]",4.57 to 99
13,"O=C(c1ccccc1)N1CCC[C@H]1c1nc2cc(C#Cc3ccc4nc([C@@H]5CCCN5C(=O)c5ccccc5)[nH]c4c3)ccc2[nH]1 [Example M6, 2-((2S)-1-benzoyl-2-pyrrolidinyl)-5-((2-((2S)-1-benzoyl-2-pyrrolidinyl)-1H-benzimidazol-6-yl)ethynyl)-1H-benzimidazole]",4.57 to 99
14,"CC(=O)N1CCC[C@H]1c1nc2c(-c3ncc(-c4ccc5[nH]c([C@@H]6CCCN6C(=O)[C@@H](c6ccccc6)N(C)C)nc5c4)o3)cccc2[nH]1 [Example J27, (1R)-2-((2S)-2-(5-(2-(2-((2S)-1-acetyl-2-pyrrolidinyl)-1H-benzimidazol-4-yl)-1,3-oxazol-5-yl)-1H-benzimidazol-2-yl)-1-pyrrolidinyl)-N,N-dimethyl-2-oxo-1-phenyl-ethanamine]",< 4.57
15,"CCc1ccccc1C(=O)N1CCC[C@H]1c1nc2cc(C#Cc3ccc4nc([C@@H]5CCCN5C(C)=O)[nH]c4c3)ccc2[nH]1 [Example M54.19, 5-((2-((2S)-1-acetyl-2-pyrrolidinyl)-1H-benzimidazol-6-yl)ethynyl)-2-((2S)-1-(2-ethylbenzoyl)-2-pyrrolidinyl)-1H-benzimidazole]",100 to 999
16,"O=C(c1nc(Cl)cc2ccccc12)N1CCC[C@H]1c1nc2cc(C#Cc3ccc4nc([C@@H]5CCCN5C(=O)c5nc(Cl)cc6ccccc56)[nH]c4c3)ccc2[nH]1 [Example M26.2, 3-chloro-1-(((2S)-2-(5-((2-((2S)-1-((3-chloro-1-isoquinolinyl)carbonyl)-2-pyrrolidinyl)-1H-benzimidazol-6-yl)ethynyl)-1H-benzimidazol-2-yl)-1-pyrrolidinyl)carbonyl)isoquinoline]",100 to 999
17,"COC(=O)N[C@H](C(=O)N1[C@@H]2C[C@@H]2C[C@H]1c1nc2cc(C#CC#Cc3ccc4[nH]c([C@@H]5C[C@H]6C[C@H]6N5C(=O)[C@@H](NC(=O)OC)C(C)C)nc4c3)ccc2[nH]1)C(C)C [Example M57.2, Methyl((1S)-1-(((1R,3S,5R)-3-(5-(4-(2-((1R,3S,5R)-2-((2S)-2-((methoxycarbonyl)amino)-3-methylbutanoyl)-2-azabicyclo[3.1.0]hex-3-yl)-1H-benzimidazol-5-yl)-1,3-butadiyn-1-yl)-1H-benzimidazol-2-yl)-2-azabicyclo[3.1.0]hex-2-yl)carbonyl)-2-methylpropyl)carbamate]",< 4.57
18,"O=C(c1ccco1)N1CCC[C@H]1c1nc2ccc(C#Cc3ccc4[nH]c([C@@H]5CCCN5C(=O)[C@H]5CCCO5)nc4c3)cc2[nH]1 [Example M51, 5-((2-((2S)-1-(2-furoyl)-2-pyrrolidinyl)-1H-benzimidazol-6-yl)ethynyl)-2-((2S)-1-((2R)-tetrahydro-2-furanylcarbonyl)-2-pyrrolidinyl)-1H-benzimidazole]",< 4.57

# Reference: patent US7906655B2, “Hepatitis C virus inhibitors” (Bristol-Myers Squibb Company, priority 2008, dated 2011)
